Measured values: patent publication US20250382296A1, “NITROGEN-CONTAINING FUSED THREE RING PRMT5 INHIBITOR, AND PREPARATION METHOD THEREFOR AND PHARMACEUTICAL USE THEREOF” (Abbisko Therapeutics Co., Ltd., priority 2022, published 2025)

Legend:
[1] = tested on: HCT 116 wild-type MTAP cells; experiment: Inhibition of proliferation of HCT116 wild-type MTAP cells (CellTiter-Glo, 6 days); format: cell-based; settings: Homo sapiens, HCT-116, 144 h
Experimental: (§1) 1. HCT 116 MTAP-knockout cells and HCT 116 wild-type MTAP cells were plated in 96-well flat-bottom plates and cultured overnight at 37° C. and […] in McCoy's 5A medium containing 10% fetal bovine serum+1% penicillin-streptomycin.
(§2) 2. The next day, compounds were each dissolved in DMSO, diluted successively with DMSO and medium and then transferred to cell plates; the final concentration of each compound was 10 μM, 4-fold dilution was performed to obtain 9 concentration points, and a DMSO control was provided.
(§3) 3. Cells not treated with compound were subjected to CellTiter-Glo Luminescent Cell Viability Assay (Promega) to detect the cell viability, and reference was made to the kit instructions for the operation; the plates were then placed on an EnVision Multilabel Reader to detect luminescence signals.
(§4) 4. Meanwhile, the cell plates containing cells treated with compounds were cultured continuously at 37° C. and […] CO2 for 6 days.
(§5) 5. Then, the cell viability was also detected by CellTiter-Glo.
(§6) 6. Finally, dose response curves were plotted using the four parameter dose response curve module of GraphPad Prism v 9.2.0 software and proliferation inhibition IC50 (unit: nM) was calculated.

[2] = tested on: HCT 116 MTAP-knockout cells; experiment: Inhibition of proliferation of HCT116 MTAP-knockout cells (CellTiter-Glo, 6 days); format: cell-based, human; settings: for IC50: Homo sapiens, HCT-116, 144 h, proliferation inhibition, HCT116 MTAP-knockout, 6 days, CellTiter-Glo; for Selectivity: IC50 HCT116 wild-type cells / IC50 HCT116 MTAP-knockout cells
Experimental: as §1, §2, §3, §4, §5, §6

Row | SMILES | IC50 [1] | IC50 [2] | Selectivity [2]
1 | C[C@H](c1ncccn1)N(Cc1ccc(C(F)(F)F)cn1)C(=O)c1ccc2nc(N)c3c(cnn3C)c2c1 [Comparative compound 1, reference compound] | 42.7 nM | 16.3 nM | 2.6
2 | CC(c1ncccn1)N(Cc1ccc(C(F)(F)F)cn1)C(=O)c1ccc2nc(N)c3[nH]ncc3c2c1 (stereo not drawn) [Comparative compound 2, reference compound] | 78.3 nM | 35.5 nM | 2.2
3 | CC(C1CC1)N(Cc1ccc(C(F)(F)F)cn1)C(=O)c1ccc2nc(N)c3cnn(C)c3c2c1 (stereo not drawn) [Comparative compound 3, reference compound] | 96 nM | 6 nM | 16
4 | C[C@H](c1ncccn1)N(Cc1ccc(C(F)(F)F)cn1)C(=O)c1ccc2nc(N)c3cnn(C)c3c2c1 [Comparative compound 4, reference compound] | 85 nM | 6 nM | 14.2
5 | C[C@H](c1ncccn1)N(Cc1ccc(C(F)(F)F)cn1)C(=O)c1ccc2nc(N)c3cncn3c2c1 [Example 3, (R)-4-amino-N-(1-(pyrimidin-2-yl)ethyl)-N-((5-(trifluoromethyl)pyridin-2-yl)methyl)imidazo[1,5-a]quinoxaline-8-carboxamide] | 166 nM | 8 nM | 20.8
6 | C[C@@H]1COC[C@H](c2ccc(C(F)(F)F)cn2)N1C(=O)c1ccc2nc(N)c3cncn3c2c1 [Example 14a, (4-aminoimidazo[1,5-a]quinoxalin-8-yl)((3R,5S)-3-methyl-5-(5-(trifluoromethyl)pyridin-2-yl)morpholino)methanone] | 2060 nM | 55 nM | 37.4
7 | Cn1cc(N(C(=O)c2ccc3nc(N)c4cncn4c3c2)C2COc3cc(C(F)(F)F)ccc32)cn1 (stereo not drawn) [Example 30, 4-amino-N-(1-methyl-1H-pyrazol-4-yl)-N-(6-(trifluoromethyl)-2,3-dihydrobenzofuran-3-yl)imidazo[1,5-a]quinoxaline-8-carboxamide] | 725 nM | 12 nM | 60.4
8 | Nc1nc2ccc(C(=O)N(CC3CC3)[C@@H]3CCc4nc(C(F)(F)F)ccc43)cc2n2cncc12 [Example 34a, (R)-4-amino-N-(cyclopropylmethyl)-N-(2-(trifluoromethyl)-6,7-dihydro-5H-cyclopenta[b]pyridin-5-yl)imidazo[1,5-a]quinoxaline-8-carboxamide] | – | 225 nM | –
9 | Nc1nc2ccc(C(=O)N(Cc3ccc(C(F)(F)F)cn3)C3CCC3)cc2n2cncc12 [Example 147, 4-amino-N-cyclobutyl-N-((5-(trifluoromethyl)pyridin-2-yl)methyl)imidazo[1,5-a]quinoxaline-8-carboxamide] | 4990 nM | 115 nM | 43.4
10 | Nc1nc2ccc(C(=O)N(Cc3ccc(C(F)(F)F)cn3)CC(F)(F)F)cc2n2cncc12 [Example 148, 4-amino-N-(2,2,2-trifluoroethyl)-N-((5-(trifluoromethyl)pyridin-2-yl)methyl)imidazo[1,5-a]quinoxaline-8-carboxamide] | > 10000 nM | 202 nM | >49.5
11 | Nc1nc2ccc(C(=O)N(Cc3ccc(OC(F)(F)F)cn3)CC3CC3)cc2n2cncc12 [Example 158, 4-amino-N-(cyclopropylmethyl)-N-((5-(trifluoromethoxy)pyridin-2-yl)methyl)imidazo[1,5-a]quinoxaline-8-carboxamide] | – | 68 nM | –
12 | Nc1nc2ccc(C(=O)N(CC3CC3)[C@H]3COc4nc(C(F)(F)F)ccc43)cc2n2cncc12 [Example 181b, (R)-4-amino-N-(cyclopropylmethyl)-N-(6-(trifluoromethyl)-2,3-dihydrofuro[2,3-b]pyridin-3-yl)imidazo[1,5-a]quinoxaline-8-carboxamide] | – | 3130 nM | –
13 | CC(c1ccc(C(F)(F)F)cn1)N(CC1CC1)C(=O)c1ccc2nc(N)c3cncn3c2c1 (stereo not drawn) [Example 203, 4-amino-N-(cyclopropylmethyl)-N-(1-(5-(trifluoromethyl)pyridin-2-yl)ethyl)imidazo[1,5-a]quinoxaline-8-carboxamide] | – | 155 nM | –

The remaining compounds from weak to strong by IC50 [2], led by results:

Row | IC50 [1] | IC50 [2] | SMILES | Selectivity [2]
14 | – | 2240 nM | CN(Cc1ccc(C(F)(F)F)cn1)C(=O)c1cc2c(cc1F)nc(N)c1cccn12 [Example 232, 4-amino-7-fluoro-N-methyl-N-((5-(trifluoromethyl)pyridin-2-yl)methyl)pyrrolo[1,2-a]quinoxaline-8-carboxamide] | –
15 | – | 1820 nM | Nc1nc2ccc(C(=O)N(CC3CC3)[C@H]3CCc4nc(C(F)(F)F)ccc43)cc2n2cncc12 [Example 34b, (S)-4-amino-N-(cyclopropylmethyl)-N-(2-(trifluoromethyl)-6,7-dihydro-5H-cyclopenta[b]pyridin-5-yl)imidazo[1,5-a]quinoxaline-8-carboxamide] | –
16 | – | 323 nM | COCCN(Cc1ccc(C(F)(F)F)cn1)C(=O)c1ccc2nc(N)c3cnc(C)n3c2c1 [Example 224, 4-amino-N-(2-methoxyethyl)-1-methyl-N-((5-(trifluoromethyl)pyridin-2-yl)methyl)imidazo[1,5-a]quinoxaline-8-carboxamide] | –
17 | – | 313 nM | Cn1cc(N(C(=O)c2ccc3nc(N)c4cncn4c3c2)[C@@H]2COc3nc(C(F)(F)F)ccc32)cn1 [Example 205a, (S)-4-amino-N-(1-methyl-1H-pyrazol-4-yl)-N-(6-(trifluoromethyl)-2,3-dihydrofuro[2,3-b]pyridin-3-yl)imidazo[1,5-a]quinoxaline-8-carboxamide] | –
18 | – | 238 nM | CN(C(=O)c1ccc2nc(N)c3cncn3c2c1)C1COc2nc(C(F)(F)F)ccc21 (stereo not drawn) [Example 204, 4-amino-N-methyl-N-(6-(trifluoromethyl)-2,3-dihydrofuro[2,3-b]pyridin-3-yl)imidazo[1,5-a]quinoxaline-8-carboxamide] | –
19 | > 10000 nM | 224 nM | CN(Cc1ccc(C(F)(F)F)cn1)C(=O)c1ccc2nc(N)c3cncn3c2c1 [Example 146, 4-amino-N-methyl-N-((5-(trifluoromethyl)pyridin-2-yl)methyl)imidazo[1,5-a]quinoxaline-8-carboxamide] | >44.6
20 | 5480 nM | 154 nM | Nc1nc2ccc(C(=O)N(CC3CC3)C3CCc4cc(C(F)(F)F)ccc43)cc2n2cncc12 (stereo not drawn) [Example 22, 4-amino-N-(cyclopropylmethyl)-N-(5-(trifluoromethyl)-2,3-dihydro-1H-inden-1-yl)imidazo[1,5-a]quinoxaline-8-carboxamide] | 35.6
21 | 7210 nM | 50 nM | Cn1cc(N(Cc2ccc(C(F)(F)F)cn2)C(=O)c2ccc3nc(N)c4cncn4c3c2)cn1 [Example 149, 4-amino-N-(1-methyl-1H-pyrazol-4-yl)-N-((5-(trifluoromethyl)pyridin-2-yl)methyl)imidazo[1,5-a]quinoxaline-8-carboxamide] | 144.1
22 | 1500 nM | 29 nM | Cc1ncc2c(N)nc3ccc(C(=O)N(Cc4ccc(C(F)(F)F)cn4)[C@H](C)c4ncccn4)cc3n12 [Example 1, (R)-4-amino-1-methyl-N-(1-(pyrimidin-2-yl)ethyl)-N-((5-(trifluoromethyl)pyridin-2-yl)methyl)imidazo[1,5-a]quinoxaline-8-carboxamide] | 51.7
23 | 1080 nM | 24 nM | CC(C1CC1)N(Cc1ccc(C(F)(F)F)cn1)C(=O)c1ccc2nc(N)c3cncn3c2c1 (stereo not drawn) [Example 145, 4-amino-N-(1-cyclopropylethyl)-N-((5-(trifluoromethyl)pyridin-2-yl)methyl)imidazo[1,5-a]quinoxaline-8-carboxamide] | 44.8
24 | 2060 nM | 22 nM | Nc1nc2ccc(C(=O)N(Cc3ccc(C(F)(F)F)cn3)CC3CC3)cc2n2cncc12 [Example 144, 4-amino-N-(cyclopropylmethyl)-N-((5-(trifluoromethyl)pyridin-2-yl)methyl)imidazo[1,5-a]quinoxaline-8-carboxamide] | 93.5
25 | 406 nM | 22 nM | CCC(C1CC1)N(Cc1ccc(C(F)(F)F)cn1)C(=O)c1ccc2nc(N)c3cncn3c2c1 (stereo not drawn) [Example 154, 4-amino-N-(1-cyclopropylpropyl)-N-((5-(trifluoromethyl)pyridin-2-yl)methyl)imidazo[1,5-a]quinoxaline-8-carboxamide] | 18.5
26 | 207 nM | 5 nM | Cc1ncc2c(N)nc3cc(F)c(C(=O)N(c4cnn(C)c4)[C@@H]4COc5cc(C(F)(F)F)ccc54)cc3n12 [Example 2, (S)-4-amino-7-fluoro-1-methyl-N-(1-methyl-1H-pyrazol-4-yl)-N-(6-(trifluoromethyl)-2,3-dihydrobenzofuran-3-yl)imidazo[1,5-a]quinoxaline-8-carboxamide] | 41.4
27 | 381 nM | 4 nM | Cn1cc(N(C(=O)c2ccc3nc(N)c4cncn4c3c2)[C@@H]2COc3cc(C(F)(F)F)ccc32)cn1 [Example 30a, (S)-4-amino-N-(1-methyl-1H-pyrazol-4-yl)-N-(6-(trifluoromethyl)-2,3-dihydrobenzofuran-3-yl)imidazo[1,5-a]quinoxaline-8-carboxamide] | 95.3
